# Reference: patent US20240228459A1 (Boundless Bio, Inc., priority 2022, published 2024)
# pIC50: −log10 of the molar value.
# Tests used:
# Wee1 = Wee1 (Homo sapiens, UniProt P30291); experiment: Wee1 pCDK1 activity (known assay); assay type: cell-based
# Description: (§1) The Wee1 pCDK1 and PLK1 activities were determined using known assays.
# PLK1 = PLK1 (Homo sapiens, UniProt P53350); experiment: PLK1 activity (known assay); assay type: biochemical
# Description: as §1
# Wee1, sequence (P30291 whole entry, species assumed): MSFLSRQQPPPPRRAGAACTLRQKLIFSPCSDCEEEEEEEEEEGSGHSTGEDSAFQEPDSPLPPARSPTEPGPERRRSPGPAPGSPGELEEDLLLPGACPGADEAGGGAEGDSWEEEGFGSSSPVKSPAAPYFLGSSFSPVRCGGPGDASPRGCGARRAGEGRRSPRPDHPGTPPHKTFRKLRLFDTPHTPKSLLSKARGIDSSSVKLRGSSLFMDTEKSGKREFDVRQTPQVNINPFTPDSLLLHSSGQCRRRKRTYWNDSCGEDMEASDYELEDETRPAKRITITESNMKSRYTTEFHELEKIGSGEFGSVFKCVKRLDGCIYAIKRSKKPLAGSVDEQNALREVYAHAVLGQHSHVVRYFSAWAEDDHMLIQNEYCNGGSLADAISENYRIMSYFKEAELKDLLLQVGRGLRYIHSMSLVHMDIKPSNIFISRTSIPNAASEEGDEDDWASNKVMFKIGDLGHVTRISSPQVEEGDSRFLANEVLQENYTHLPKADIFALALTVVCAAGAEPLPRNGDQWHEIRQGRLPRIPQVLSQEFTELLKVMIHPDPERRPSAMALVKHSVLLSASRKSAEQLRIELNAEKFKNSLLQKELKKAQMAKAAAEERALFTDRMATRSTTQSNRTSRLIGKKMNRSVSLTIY
# PLK1, sequence (P53350 whole entry, species assumed): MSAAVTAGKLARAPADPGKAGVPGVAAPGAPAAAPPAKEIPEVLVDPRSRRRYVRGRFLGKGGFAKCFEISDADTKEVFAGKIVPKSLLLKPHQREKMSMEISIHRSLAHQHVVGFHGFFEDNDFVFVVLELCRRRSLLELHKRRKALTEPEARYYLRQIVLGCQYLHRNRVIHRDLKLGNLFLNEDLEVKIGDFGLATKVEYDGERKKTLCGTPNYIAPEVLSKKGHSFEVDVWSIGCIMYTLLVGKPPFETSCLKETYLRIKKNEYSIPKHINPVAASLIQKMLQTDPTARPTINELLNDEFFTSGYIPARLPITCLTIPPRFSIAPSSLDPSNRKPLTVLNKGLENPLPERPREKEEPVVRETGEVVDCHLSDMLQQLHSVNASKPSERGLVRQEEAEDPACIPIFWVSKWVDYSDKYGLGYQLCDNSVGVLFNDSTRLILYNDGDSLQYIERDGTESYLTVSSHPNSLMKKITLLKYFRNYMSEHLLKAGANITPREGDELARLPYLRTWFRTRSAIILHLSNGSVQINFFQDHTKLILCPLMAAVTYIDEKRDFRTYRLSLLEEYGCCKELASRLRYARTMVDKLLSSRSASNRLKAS
Compound,pIC50 (Wee1),pIC50 (PLK1)
"CN1CCC(O)(c2ccc(Nc3ncc(C#N)c(Nc4cccc(N5CCCC5=O)n4)n3)cc2)CC1 [Example 78, 2-[4-(4-hydroxy-1-methyl-4-piperidyl)anilino]-4-[[6-(2-oxopyrrolidin-1-yl)-2-pyridyl]amino]pyrimidine-5-carbonitrile]",< 6.00,< 6.00
"CCC1(O)CCc2ccc(Nc3nc(Nc4ccc(C5CCN(C)CC5)c(F)c4)ncc3C#N)nc21 (stereo not drawn) [Example 43, 4-[(7-ethyl-7-hydroxy-5,6-dihydrocyclopenta[b]pyridin-2-yl)amino]-2-[3-fluoro-4-(1-methyl-4-piperidyl)anilino]pyrimidine-5-carbonitrile]",6.30 to 6.60,6.30 to 6.60
"CCC1(O)CCc2ccc(Nc3nc(Nc4ccc(N5C6CCC5CN(C)C6)cc4)ncc3C#N)nc21 (single isomer, unassigned) [Example 37]",< 6.00,< 6.00
"CCC1(O)CCc2ccc(Nc3nc(Nc4ccc(N5CCN(C6CC6)CC5)cc4)ncc3C#N)nc21 (stereo not drawn) [Example 23, 2-[4-(4-cyclopropylpiperazin-1-yl)anilino]-4-[(7-ethyl-7-hydroxy-5,6-dihydrocyclopenta[b]pyridin-2-yl)amino]pyrimidine-5-carbonitrile]",6.00 to 6.30,≥ 7.00
"C[C@H]1CN(C)CCN1c1ccc(Nc2ncc(C#N)c(Nc3cccc(N4CCCC4=O)n3)n2)cc1 [Example 65, 4-[[6-(2-oxopyrrolidin-1-yl)-2-pyridyl]amino]-2-[4-[(2S)-2,4-dimethylpiperazin-1-yl]anilino]pyrimidine-5-carbonitrile]",6.60 to 7.00,< 6.00
"CCC1(O)CCc2ccc(Nc3nc(Nc4ccc(N5C6CCC5CN(C)C6)cc4)ncc3C#N)nc21 (stereo not drawn) [Example 36, 4-[(7-ethyl-7-hydroxy-5,6-dihydrocyclopenta[b]pyridin-2-yl)amino]-2-[4-(3-methyl-3,8-diazabicyclo[3.2.1]octan-8-yl)anilino]pyrimidine-5-carbonitrile]",6.30 to 6.60,< 6.00
"CCC1(O)CCc2ccc(Nc3nc(Nc4ccc(N5C[C@@H](C)N[C@@H](C)C5)cc4)ncc3C#N)nc21 (mixture of isomers) [Example 32, 4-[(7-ethyl-7-hydroxy-5,6-dihydrocyclopenta[b]pyridin-2-yl)amino]-2-[4-[rac-(3R,5S)-3,5-dimethylpiperazin-1-yl]anilino]pyrimidine-5-carbonitrile]",6.60 to 7.00,≥ 7.00
"Cc1cc(Nc2ncc(C#N)c(Nc3cccc(N4CCCC4=O)n3)n2)cc2c1CN(C)CC2 [Example 73, 2-[(2,8-dimethyl-3,4-dihydro-1H-isoquinolin-6-yl)amino]-4-[[6-(2-oxopyrrolidin-1-yl)-2-pyridyl]amino]pyrimidine-5-carbonitrile]",≥ 7.00,< 6.00
"CCC1(O)CCc2ccc(Nc3nc(Nc4ccc(N5CCN(C)CC5)cc4)ncc3C#N)nc21 (stereo not drawn) [Example 15, 4-[(7-ethyl-7-hydroxy-5,6-dihydrocyclopenta[b]pyridin-2-yl)amino]-2-[4-(4-methylpiperazin-1-yl)anilino]pyrimidine-5-carbonitrile]",6.30 to 6.60,≥ 7.00
"CCC1(O)CCCc2ccc(Nc3nc(Nc4ccc(N5CCN(C)CC5)cc4)ncc3C#N)nc21 (stereo not drawn) [Example 1, 4-[(8-ethyl-8-hydroxy-6,7-dihydro-5H-quinolin-2-yl)amino]-2-[4-(4-methylpiperazin-1-yl)anilino]pyrimidine-5-carbonitrile]",6.60 to 7.00,≥ 7.00
"CN1CCc2cc(Nc3ncc(C#N)c(Nc4cccc(N5CCCC5=O)n4)n3)ccc2C1 [Example 72, 2-[(2-methyl-3,4-dihydro-1H-isoquinolin-6-yl)amino]-4-[[6-(2-oxopyrrolidin-1-yl)-2-pyridyl]amino]pyrimidine-5-carbonitrile]",≥ 7.00,< 6.00
"CCC1(O)CCc2ccc(Nc3nc(Nc4ccc5c(c4)CNCC5(C)C)ncc3C#N)nc21 (stereo not drawn) [Example 30, 2-[(4,4-dimethyl-2,3-dihydro-1H-isoquinolin-7-yl)amino]-4-[(7-ethyl-7-hydroxy-5,6-dihydrocyclopenta[b]pyridin-2-yl)amino]pyrimidine-5-carbonitrile]",6.30 to 6.60,< 6.00
"CCC1(O)CCc2ccc(Nc3nc(Nc4ccc(N5CC6CN(C)CC6C5)cc4)ncc3C#N)nc21 (stereo not drawn) [Example 34, 4-[(7-ethyl-7-hydroxy-5,6-dihydrocyclopenta[b]pyridin-2-yl)amino]-2-[4-(2-methyl-1,3,3a,4,6,6a-hexahydropyrrolo[3,4-c]pyrrol-5-yl)anilino]pyrimidine-5-carbonitrile]",6.60 to 7.00,≥ 7.00
"CCC1(O)CCc2ccc(Nc3nc(Nc4ccc(N5CCNC6(CC6)C5)cc4)ncc3C#N)nc21 (stereo not drawn) [Example 31, 2-[4-(4,7-diazaspiro[2.5]octan-7-yl)anilino]-4-[(7-ethyl-7-hydroxy-5,6-dihydrocyclopenta[b]pyridin-2-yl)amino]pyrimidine-5-carbonitrile]",< 6.00,6.60 to 7.00

# The next lines start with the values.
pIC50 (Wee1),pIC50 (PLK1),Compound
6.00 to 6.30,6.00 to 6.30,"C[C@H]1CN(C)CCN1c1ccc(Nc2ncc(C#N)c(Nc3ccc4c(n3)C(C)(O)CC4)n2)cc1 (mixture of isomers) [Example 60, 4-[(7-hydroxy-7-methyl-5,6-dihydrocyclopenta[b]pyridin-2-yl)amino]-2-[4-[rac-(2S)-2,4-dimethylpiperazin-1-yl]anilino]pyrimidine-5-carbonitrile]"
6.60 to 7.00,6.30 to 6.60,"CCC1(O)CCc2ccc(Nc3nc(Nc4ccc(C5CCN(C)CC5)c(COC)c4)ncc3C#N)nc21 (stereo not drawn) [Example 44, 4-[(7-ethyl-7-hydroxy-5,6-dihydrocyclopenta[b]pyridin-2-yl)amino]-2-[3-(methoxymethyl)-4-(1-methyl-4-piperidyl)anilino]pyrimidine-5-carbonitrile]"
≥ 7.00,≥ 7.00,"CCC1(O)CCc2ccc(Nc3nc(Nc4cc(C)c5c(c4)CN(C)CC5)ncc3C#N)nc21 (stereo not drawn) [Example 49, 2-[(2,5-dimethyl-3,4-dihydro-1H-isoquinolin-7-yl)amino]-4-[(7-ethyl-7-hydroxy-5,6-dihydrocyclopenta[b]pyridin-2-yl)amino]pyrimidine-5-carbonitrile]"
≥ 7.00,< 6.00,"CN1CCc2cc(Nc3ncc(C#N)c(Nc4cccc(N5CCOC5=O)n4)n3)cc(Cl)c2C1 [Example 13, 2-[(8-chloro-2-methyl-3,4-dihydro-1H-isoquinolin-6-yl)amino]-4-[[6-(2-oxooxazolidin-3-yl)-2-pyridyl]amino]pyrimidine-5-carbonitrile]"
6.60 to 7.00,≥ 7.00,"CCC1(O)CCc2ccc(Nc3nc(Nc4ccc(N5CCN(C)CC5)c(C)c4)ncc3C#N)nc21 (stereo not drawn) [Example 16, 4-[(7-ethyl-7-hydroxy-5,6-dihydrocyclopenta[b]pyridin-2-yl)amino]-2-[3-methyl-4-(4-methylpiperazin-1-yl)anilino]pyrimidine-5-carbonitrile]"
6.60 to 7.00,6.30 to 6.60,"CCC1(O)CCc2ccc(Nc3nc(Nc4ccc5c(c4)CCN(C)C5)ncc3C#N)nc21 (stereo not drawn) [Example 46, 4-[(7-ethyl-7-hydroxy-5,6-dihydrocyclopenta[b]pyridin-2-yl)amino]-2-[(2-methyl-3,4-dihydro-1H-isoquinolin-6-yl)amino]pyrimidine-5-carbonitrile]"
6.30 to 6.60,< 6.00,"CCC1(O)CCc2ccc(Nc3nc(Nc4ccc5c(c4)CCN(C)C5(C)C)ncc3C#N)nc21 (single isomer, unassigned) [Example 28]"
